“Also recorded” adds a separate entry of the source.
How the values were obtained:
tubulin [1] = tested on: T1, tubulin; test: Enhancement of glutamate- or MAP-induced tubulin assembly, turbidimetric curves (FIGS. 4 and 5); assay type: biochemical
T1 construct: Activity in room temperature assay; other: no polymerization in the absence of drug; other: GTP-only system, critical concentrations

tubulin [2] = tested on: T2, tubulin; test: Tubulin polymerization inhibition in vitro (turbidity at 350 nm); assay type: biochemical
T2 construct: other: 1.0 M glutamate, 10 μM tubulin; Effect on tubulin polymerization / microtubule assembly
Description: Microtubule assembly is followed in a temperature controlled recording spectrophotometer. For details and a discussion, see R. D'Amato et al., Proc Natl Acad Sci USA, 91:3964-3968 (1994).
A typical reaction mixture, which will have a final reaction volume of […], contains 1.0 M monosodium glutamate (pH 6.6), 1.0 mg/ml (10 μM) tubulin, 1.0 MM MgCl2, 4% (v/v) dimethylsulfoxide, and a compound to be tested at the desired concentration (typically 0.1 to 100 μM). The reaction mixtures are incubated for 15 min. at 37° C. and then chilled on ice. After addition of 10 μl 12.5 mM GTP (and, optionally, 0.33 mg/ml microtubule-associated proteins, or MAPs) to initiate polymerization, each reaction mixture is transferred to a cuvette at 0° C., and a baseline established. At time zero, the temperature controller of the spectrophotometer is set to a target temperature, typically between 25 and 37° C. Microtubule assembly is monitored by observing an increase in turbidity at 350 nm as the temperature of the reaction mixture rises to the set target temperature.
The results are presented in Table 1 as IC50 values (μM) for inhibition of tubulin polymerization. Alternatively, inhibition of microtubule assembly can be detected by transmission electron microscopy, as described in U.S. Pat. No. 5,504,074 which is hereby incorporated by reference in its entirety.

tubulin [3] = tested on: T1, tubulin; test: as above; assay type: biochemical; set-up: key: *: Accelerates tubulin polymerization; settings: no IC50 derivable
tubulin polymer [4] = test: Inhibition of [3H]paclitaxel binding to tubulin polymer
tubulin [5] = tested on: T1, tubulin; test: Enhancement of glutamate- or MAP-induced tubulin assembly, turbidimetric curves (FIGS. 4 and 5); assay type: biochemical; remark: listed apart in the source
Description: In those cases where acceleration of tubulin polymerization is observed, an IC50 value for inhibition of polymerization is of course not derivable. Results for such compounds may be presented in the form of turbidimetric curves, e.g. as presented in FIGS. 4 and 5 for representative compounds 13 and 18.
FIG. 4: Each reaction mixture contained 0.8 M glutamate (pH 6.6), 0.4 mM GTP, 12 μM (1.2 mg/ml) tubulin, 4% (v/v) dimethyl sulfoxide, and compound 13 or 18 as indicated. Baselines were established at 0°, and at time zero the temperature controller was set at 26°. At the time indicated by the dashed line, the temperature controller was set at 0°. A. Curve 1, no drug; curve 2, 2 μM compound 13; curve 3, 5 μM 7; curve 4, 10 μM 7; curve 5, 40 μM 7; curve 6, 40 μM 14. B. Curve 1, no drug; curve 2, 2 μM compound 18; curve 3, 5 μM 18; curve 4, 10 μM 18; curve 5, 40 μM 18.
FIG. 5: Each reaction mixture contained 0.1 M Mes (pH 6.9 with NaOH in 0.5 M stock solution), 0.1 mM GTP, 10 μM (1.0 mg/ml) tubulin, 0.75 mg/ml heat-treated MAPs, 4% dimethyl sulfoxide, and drug as indicated. […] There was no change in turbidity in any reaction mixture. At this point the temperature controller was set at 10°, and subsequent temperature changes, as indicated, were made at the times indicated by the vertical dashed lines. Curve 1, no drug; curve 2, 10 μM paclitaxel; curve 3, 10 μM compound 13; curve 4, 20 μM 7; curve 5, 40 μM 7; curve 6, 10 μM compound 18.

tubulin [6] = tested on: T1, tubulin; test: Room temperature tubulin assembly assay (favorable reaction conditions, glutamate-dependent); assay type: biochemical; settings: no polymerization in the absence of drug
Description: Previous observations with paclitaxel analogs indicate that differences between compounds are magnified in restrictive reaction conditions and minimized in favorable reaction conditions. […] However, under favorable reaction conditions (room temperature) the quantitative difference between paclitaxel and sarcodictyin A was only 2.5-fold. […] The critical concentration with 10 μM sarcodictyin A under the reaction conditions shown in FIG. 6B is 1.0 mg/ml in the GTP-only system.

tubulin [7] = tested on: T1, tubulin; test: Critical concentration of tubulin for assembly, turbidimetric (FIG. 6); assay type: biochemical; settings: for Critical concentration of tubulin, GTP-dependent, MAP-independent assembly: no MAPs
Description: FIG. 6 presents critical concentrations, obtained at 30° C., of tubulin with paclitaxel and compound 13. A: MAPs -and GTP-dependent assembly without drug and in the presence of 10 μM paclitaxel or 10 μM 13. B: GTP-dependent, MAP-independent assembly with 10 μM paclitaxel or 10 μM 13.
Measurement of the critical concentration with and without MAPs with paclitaxel, and again with 13, was therefore carried out to provide some idea of the comparative activity of these agents. The data are presented in FIG. 6, which yield critical concentrations, obtained at 30° C., of 1.4, 0.06, and 0.50 mg/ml for MAP-and GTP-dependent assembly without drug and in the presence of 10 μM paclitaxel or 10 μM 13, respectively, and 0.20 and 1.4 mg/ml for GTP-dependent, MAP-independent assembly with 10 μM paclitaxel or 10 μM 13. […] (A constant weight ratio of MAPs to tubulin of 1:3 was used, because the suboptimal concentration of MAPs caused greater differences in the critical concentrations obtained.) Reaction mixtures (0.25 ml) contained 0.1 M Mes (pH 6.9), 100 μM GTP, 4% dimethyl sulfoxide, the indicated tubulin concentration (with heat-treated MAPs in 1:3 weight ratio to the tubulin, panel A only), and either 10 μM paclitaxel (▴), 10 μM compound 13 (◯), or no drug (▾). Cuvette contents were equilibrated at 0°, drugs were added, temperature was jumped to 30° (about one min), and the turbidity changes after a 20 min incubation measured.

tubulin [8] = tested on: T1, tubulin; test: Polymer morphology by electron microscopy; assay type: biochemical
From the text: It was possible that compounds 13 and 18 were not actually acting like paclitaxel in enhancing microtubule assembly and in stabilizing the microtubules formed in the course of the turbidity studies shown in FIG. 4, but that these agents were causing formation of polymers of aberrant morphology and temperature stability different from microtubules, such as occurs with vinca alkaloids. Polymer morphology was examined by electron microscopy. […] Even more important, when the reaction mixtures were returned to 0° C. for 15 min, no microtubules were visualized on grids prepared from the reaction mixture without drug.

tubulin polymer [9] = settings: cited from earlier work
tubulin [10] = tested on: T1, tubulin; settings: favorable reaction conditions (room temperature); cited from earlier work
[11] = GTP-only system, critical concentrations

Row | Structure (SMILES) | Tubulin assembly in the absence of GTP (tubulin [1]) | Assembly reaction when either MAPs or GTP was omitted (tubulin [1]; 10 μM tubulin, 40 μM compound 13 or 10 μM paclitaxel) | Effect on tubulin polymerization / microtubule assembly (tubulin [2]) | Tubulin polymerization inhibition, symbol instead of IC50 (tubulin [3]) | Inhibition of [3H]paclitaxel binding to tubulin polymer (tubulin polymer [4]) | Maximal inhibition of [3H]paclitaxel binding to tubulin polymer (tubulin polymer [4]) | Effect on glutamate- and MAP-induced tubulin assembly (tubulin [5]) | Effect on MAP-induced tubulin assembly (tubulin [5]; 0.75 mg/ml MAPs, 1.0 mg/ml tubulin, 25° C.) | Activity in room temperature assay (tubulin [6]) | Assembly of microtubules without MAPs (tubulin [7]; 10 μM 13, 40 μM tubulin) | Critical concentration of tubulin, MAP- and GTP-dependent assembly (tubulin [7]; 30° C., 10 μM drug, MAPs:tubulin 1:3 by weight) | Critical concentration of tubulin, GTP-dependent, MAP-independent assembly (tubulin [7]; 30° C., 10 μM drug) | Microtubules formed, seen by electron microscopy (tubulin [8]) | Cold stable microtubules after return to 0° C. for 15 min (tubulin [8]; 40 μM 13 or 10 μM paclitaxel) | Inhibition of paclitaxel binding to tubulin polymer (tubulin polymer [9]) | Quantitative difference between paclitaxel and sarcodictyin A (tubulin [10]) | Activity relative to compound 13 (% more active) (tubulin [7]; [11]) | Activity relative to paclitaxel (fold less active) (tubulin [7]; [11])
1 | CCOc1cc2c(cc1OC(C)=O)C(=O)CC[C@@H]1[C@@H]2CC[C@]2(C)[C@@H](OC(C)=O)CC[C@@H]12 [Compound 13, B-Homo-3,17β-diacetoxy-2-ethoxyestra-1,3,5(10)-triene-6-one] | has not been observed; also recorded: not without GTP | no reaction occurred | stimulate microtubule assembly | * | only minimally inhibits | about 20% | paclitaxel-like properties | enhanced tubulin assembly; also recorded: significantly less than that of paclitaxel | inactive | assembly of microtubules was observed without MAPs | 0.50 mg/mL | 1.4 mg/mL | abundant microtubules were formed that were indistinguishable from those formed in the absence of drug | abundant cold stable microtubules were observed |  |  |  | 
2 | COC(=O)/C1=C/[C@@H]2[C@@H](C(C)C)CC=C(C)[C@@H]2C[C@H](OC(=O)/C=C/c2cn(C)cn2)[C@]2(C)C=C[C@@]1(O)O2 [sarcodictyin A] |  |  |  |  |  |  |  |  |  |  |  | 1.0 mg/mL |  |  | only weakly inhibits | 2.5 fold | 40% | about 5 fold
